Test results reported in patent publication US20250388604A1, “Compounds and Their Use as PDE4 Activators” (Mironid Limited, priority 2022, published 2025).

test system: m-IMCD3 cells; assay: Inhibition of PGE2-stimulated in vitro cyst formation in m-IMCD3 cells; assay type: cell-based, mouse; details: 3 μM; mean cyst area, 100% for (DMSO + PGE2) and 0% for DMSO control; 6 days of culture
Summary of the method: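 m-IMCD3 cells embedded in collagen I/Matrigel 3D culture; 18–24 h after plating, compound (0.1% DMSO final) plus PGE2 (100 nM final) added, replenished after 2 or 3 days. After 6 days, z-stack imaging gave mean cyst area, normalized to DMSO+PGE2 (100%) and DMSO (0%).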

| Structure (SMILES) | % Cyst area after incubation with 3 μM test compound [%] |
| --- | --- |
| CC(O)(C(=O)N1CCc2nc(N3C4CCC3CNC4)sc2C1)C1CCCC1 (single isomer, unassigned) [Example 255, 1-(2-(3,8-diazabicyclo[3.2.1]octan-8-yl)-6,7-dihydrothiazolo[5,4-c]pyridin-5(4H)-yl)-2-cyclopentyl-2-hydroxypropan-1-one] | −5 |

same assay, conditions: Mus musculus, mIMCD3, 144 h, 3 μM; mean cyst area, 100% for (DMSO + PGE2) and 0% for DMSO control; 6 days of culture; read-out: % Cyst area after incubation with 3 μM test compound

| Structure (SMILES) | activity at 3 µM [%] |
| --- | --- |
| Cc1cc(F)ccc1C(=O)N1CCc2nc(N3C4CCC3CNC4)sc2C1 [Example 216, (2-(3,8-diazabicyclo[3.2.1]octan-8-yl)-6,7-dihydrothiazolo[5,4-c]pyridin-5(4H)-yl)(4-fluoro-2-methylphenyl)methanone] | -3 |
| O=C(c1ccccc1Cl)N1CCc2nc(N3C4CCC3CNC4)sc2C1 [Example 210, (2-(3,8-diazabicyclo[3.2.1]octan-8-yl)-6,7-dihydrothiazolo[5,4-c]pyridin-5(4H)-yl)(2-chlorophenyl)methanone] | 11 |
| O=C(COc1ccccc1OC(F)(F)F)N1CCc2nc(N3C4CCC3CNC4)sc2C1 [Example 164, 1-(2-(3,8-diazabicyclo[3.2.1]octan-8-yl)-6,7-dihydrothiazolo[5,4-c]pyridin-5(4H)-yl)-2-(2-(trifluoromethoxy)phenoxy)ethan-1-one] | -7 |
| CC(C)C(O)C(=O)N1Cc2sc(N3C4CCC3CNC4)nc2C(C)(C)C1 (centres unmarked) [Example 259, 1-(2-(3,8-diazabicyclo[3.2.1]octan-8-yl)-7,7-dimethyl-6,7-dihydrothiazolo[5,4-c]pyridin-5(4H)-yl)-2-hydroxy-3-methylbutan-1-one] | -6 |
| CC(OC1CCCC1)C(=O)N1CCc2nc(N3C4CCC3CNC4)sc2C1 (centres unmarked) [Example 169, 1-(2-(3,8-diazabicyclo[3.2.1]octan-8-yl)-6,7-dihydrothiazolo[5,4-c]pyridin-5(4H)-yl)-2-(cyclopentyloxy)propan-1-one] | -9 |
| CCN1CC2CCC(C1)N2c1nc2c(s1)CN(S(=O)(=O)Cc1ccccc1)CC2 [Example 289, 5-(benzylsulfonyl)-2-(3-ethyl-3,8-diazabicyclo[3.2.1]octan-8-yl)-4,5,6,7-tetrahydrothiazolo[5,4-c]pyridine] | -7 |
| CC(C)C(C)(C)C(=O)N1CCc2nc(N3C4CCC3CNC4)sc2C1 [Example 161, 1-(2-(3,8-diazabicyclo[3.2.1]octan-8-yl)-6,7-dihydrothiazolo[5,4-c]pyridin-5(4H)-yl)-2,2,3-trimethylbutan-1-one] | -3 |
| O=C(c1ccc(OC(F)F)cc1)N1CCc2nc(N3C4CCC3CNC4)sc2C1 [Example 204, (2-(3,8-diazabicyclo[3.2.1]octan-8-yl)-6,7-dihydrothiazolo[5,4-c]pyridin-5(4H)-yl)(4-(difluoromethoxy)phenyl)methanone] | 4 |
| O=C(c1cccnc1Cl)N1CCc2nc(N3C4CCC3CNC4)sc2C1 [Example 224, (2-(3,8-diazabicyclo[3.2.1]octan-8-yl)-6,7-dihydrothiazolo[5,4-c]pyridin-5(4H)-yl)(2-chloropyridin-3-yl)methanone] | 22 |
| CC(C)(C)[C@@H](O)C(=O)N1CCc2nc(N3C4CCC3CNC4)sc2C1 [Example 176, (2R)-1-(2-(3,8-diazabicyclo[3.2.1]octan-8-yl)-6,7-dihydrothiazolo[5,4-c]pyridin-5(4H)-yl)-2-hydroxy-3,3-dimethylbutan-1-one] | 12 |
| CC(C)(C#N)CC(=O)N1CCc2nc(N3C4CCC3CNC4)sc2C1 [Example 178, 4-(2-(3,8-diazabicyclo[3.2.1]octan-8-yl)-6,7-dihydrothiazolo[5,4-c]pyridin-5(4H)-yl)-2,2-dimethyl-4-oxobutanenitrile] | 24 |
| O=C(c1ccc(OC(F)(F)F)cc1)N1CCc2nc(N3C4CCC3CNC4)sc2C1 [Example 208, (2-(3,8-diazabicyclo[3.2.1]octan-8-yl)-6,7-dihydrothiazolo[5,4-c]pyridin-5(4H)-yl)(4-(trifluoromethoxy)phenyl)methanone] | 8 |
| O=C(CC1CCCC1)N1CCc2nc(N3CCN4CCC[C@@H]4C3)sc2C1 [Example 272, (R)-2-cyclopentyl-1-(2-(hexahydropyrrolo[1,2-a]pyrazin-2(1H)-yl)-6,7-dihydrothiazolo[5,4-c]pyridin-5(4H)-yl)ethan-1-one] | 16 |
| O=C(C1Cc2ccccc2CO1)N1CCc2nc(N3C4CCC3CNC4)sc2C1 (centres unmarked) [Example 183, (2-(3,8-diazabicyclo[3.2.1]octan-8-yl)-6,7-dihydrothiazolo[5,4-c]pyridin-5(4H)-yl)(isochroman-3-yl)methanone] | 0 |
| O=C(c1ccc(C2CC2)cc1)N1CCc2nc(N3C4CCC3CNC4)sc2C1 [Example 228, (2-(3,8-diazabicyclo[3.2.1]octan-8-yl)-6,7-dihydrothiazolo[5,4-c]pyridin-5(4H)-yl)(4-cyclopropylphenyl)methanone] | -6 |
| O=C(c1nccc2ccccc12)N1CCc2nc(N3C4CCC3CNC4)sc2C1 [Example 186, (2-(3,8-diazabicyclo[3.2.1]octan-8-yl)-6,7-dihydrothiazolo[5,4-c]pyridin-5(4H)-yl)(isoquinolin-1-yl)methanone] | 0 |

same assay, conditions: Mus musculus, mIMCD3, 144 h, 10 μM; mean cyst area, 100% for (DMSO + PGE2) and 0% for DMSO control; 6 days of culture; read-out: % Cyst area after incubation with 10 μM test compound

| Structure (SMILES) | activity at 10 µM [%] |
| --- | --- |
| CN1CC2CCC(C1)N2c1cc2n(n1)CCN(C(=O)CC1CCC(F)(F)CC1)C2 [Example 86, 2-(4,4-difluorocyclohexyl)-1-(2-(3-methyl-3,8-diazabicyclo[3.2.1]octan-8-yl)-6,7-dihydropyrazolo[1,5-a]pyrazin-5(4H)-yl)ethan-1-one] | -1 |
| CN1CC2CCC(C1)N2c1nc2c(s1)CN(C(=O)CC1CCC(F)(F)CC1)C2 [Example 84, 2-(4,4-difluorocyclohexyl)-1-(2-(3-methyl-3,8-diazabicyclo[3.2.1]octan-8-yl)-4,6-dihydro-5H-pyrrolo[3,4-d]thiazol-5-yl)ethan-1-one] | 1 |
| CC1(C(=O)N2CCc3nc(N4C5CCC4CNC5)sc3C2)CCCC1 [Example 150, (2-(3,8-diazabicyclo[3.2.1]octan-8-yl)-6,7-dihydrothiazolo[5,4-c]pyridin-5(4H)-yl)(1-methylcyclopentyl)methanone] | 1 |
| O=C(CC(F)(F)F)N1CCc2nc(N3C4CCC3CNC4)sc2C1 [Example 26, 1-(2-(3,8-diazabicyclo[3.2.1]octan-8-yl)-6,7-dihydrothiazolo[5,4-c]pyridin-5(4H)-yl)-3,3,3-trifluoropropan-1-one] | 1 |
| COc1cc(F)ccc1CCC(=O)N1CCc2nc(N3C4CCC3CNC4)sc2C1 [Example 147, 1-(2-(3,8-diazabicyclo[3.2.1]octan-8-yl)-6,7-dihydrothiazolo[5,4-c]pyridin-5(4H)-yl)-3-(4-fluoro-2-methoxyphenyl)propan-1-one] | 9 |
| Cc1cc(F)ccc1CC(=O)N1CCc2nc(N3C4CCC3CNC4)sc2C1 [Example 156, 1-(2-(3,8-diazabicyclo[3.2.1]octan-8-yl)-6,7-dihydrothiazolo[5,4-c]pyridin-5(4H)-yl)-2-(4-fluoro-2-methylphenyl)ethan-1-one] | 0 |
| CC(C)[C@@H](C)C(=O)N1CCc2nc(N3C4CCC3CNC4)sc2C1 [Example 19, (2R)-1-(2-(3,8-diazabicyclo[3.2.1]octan-8-yl)-6,7-dihydrothiazolo[5,4-c]pyridin-5(4H)-yl)-2,3-dimethylbutan-1-one] | -2 |
| O=C(NC1CCC(F)(F)CC1)N1CCc2nc(N3C4CCC3CNC4)sc2C1 [Example 58, 2-(3,8-diazabicyclo[3.2.1]octan-8-yl)-N-(4,4-difluorocyclohexyl)-6,7-dihydrothiazolo[5,4-c]pyridine-5(4H)-carboxamide] | -3 |
| O=C(Cc1ccnc(F)c1)N1CCc2nc(N3C4CCC3CNC4)sc2C1 [Example 141, 1-(2-(3,8-diazabicyclo[3.2.1]octan-8-yl)-6,7-dihydrothiazolo[5,4-c]pyridin-5(4H)-yl)-2-(2-fluoropyridin-4-yl)ethan-1-one] | -7 |
| CC(C)(Oc1ccccc1)C(=O)N1CCc2nc(N3C4CCC3CNC4)sc2C1 [Example 30, 1-(2-(3,8-diazabicyclo[3.2.1]octan-8-yl)-6,7-dihydrothiazolo[5,4-c]pyridin-5(4H)-yl)-2-methyl-2-phenoxypropan-1-one] | 1 |
| COc1cc(F)ccc1CC(=O)N1CCc2nc(N3C4CCC3CNC4)sc2C1 [Example 140, 1-(2-(3,8-diazabicyclo[3.2.1]octan-8-yl)-6,7-dihydrothiazolo[5,4-c]pyridin-5(4H)-yl)-2-(4-fluoro-2-methoxyphenyl)ethan-1-one] | 0 |
| O=C(NCc1ccc(C(F)(F)F)cc1)N1CCc2nc(N3C4CCC3CNC4)sc2C1 [Example 56, 2-(3,8-diazabicyclo[3.2.1]octan-8-yl)-N-(4-(trifluoromethyl)benzyl)-6,7-dihydrothiazolo[5,4-c]pyridine-5(4H)-carboxamide] | -6 |
| CC(C)(C(=O)N1CCc2nc(N3C4CCC3CNC4)sc2C1)C1CCCC1 [Example 146, 1-(2-(3,8-diazabicyclo[3.2.1]octan-8-yl)-6,7-dihydrothiazolo[5,4-c]pyridin-5(4H)-yl)-2-cyclopentyl-2-methylpropan-1-one] | 16 |
| COc1cc(F)ccc1OCC(=O)N1CCc2nc(N3C4CCC3CNC4)sc2C1 [Example 143, 1-(2-(3,8-diazabicyclo[3.2.1]octan-8-yl)-6,7-dihydrothiazolo[5,4-c]pyridin-5(4H)-yl)-2-(4-fluoro-2-methoxyphenoxy)ethan-1-one] | 2 |
| O=C(CC1CCC(F)(F)CC1)N1CCc2nc(N3C4CCC3CNC4)sc2C1 [Example 2, 1-(2-(3,8-diazabicyclo[3.2.1]octan-8-yl)-6,7-dihydrothiazolo[5,4-c]pyridin-5(4H)-yl)-2-(4,4-difluorocyclohexyl)ethan-1-one] | 2 |
